Experimental findings from patent US8357377B2, “Cyclodextrin-based materials, compositions and uses related thereto” (priority 2002, dated 2013) are described below.

The data set in a line: Rat PVA sponge model, morphological analysis (Masson's Trichrome sections). Also on record: species or system Harlan Sprague-Dawley rats. The note with it: in vivo. As to the method:
Six small incisions (0.5 cm) were performed and polyvinyl alcohol (PVA, M-PACTO®) sponges were subcutaneously implanted on the ventral side of male Harlan Sprague-Dawley rats.
Four days after implantation, test and control materials were diluted with vPBS and liquid collagen (Cohesion Technologies®) or 58 kD Cyclodextrin (CD)-Adamantane matrix as described above and injected into PVA sponges. Final collagen formulation was 1.8 mg/mL, pHed with NaOH, and brought up to volume with vPBS. Final 58 kD Cyclodextrin (CD)-Adamantane matrix formulation was 100 mg/mL. 200 μL total volume of test reagent was delivered to each sponge. Animals were sacrificed and sponges were removed 2 days after injections. Sponges were cut into three pieces and the majority of the sponge (˜70-80%) was frozen in liquid nitrogen and stored at −80° C. for QPCR and QRT-PCR analysis. A small portion of the sponge was fixed in 4% PFA at 4° C. for 18 hours, paraffin embedded, and sectioned (5 μm). Sections were stained using Masson's Trichrome (cells=black, vasculature=red, and collagen=blue) and Hematoxylin-Eosin methods. Tissue sections were analyzed microscopically for gross histology by two separate investigators.
5 μm, Masson's Trichrome stained paraffin sections were analyzed by two separate observers. Sponge characteristics were qualitatively evaluated by the following criteria: Minimal<Light<Moderate<Heavy<Severe for all categories except Capsule Size. The following criteria were used for evaluation of Capsule Size: Thin<Moderate<Thick<Very Thick.

In the case of Collagen, the “Capsule Size” value is given as “Thin”, the “Immune Response” value is given as “Minimal” and the “Immune response (gross histological examination)” value is on record as “minimal immune response”.
